Data published in ChEMBL document CHEMBL2424544, “Inhibitors of switch kinase 'spleen tyrosine kinase' in inflammation and immune-mediated disorders: a review” (Eur J Med Chem, 2013).

Molecular target: Tyrosine-protein kinase SYK (Homo sapiens, UniProt P43405)
Assay: Inhibition of spleen tyrosine kinase (unknown origin); call rule not given here

IC50 (read-out: IC50) [µM] | IC50 | SMILES
> 10 | – | CNc1nc(NCCN)ncc1C(N)=O
> 10 | – | CNC(=O)c1cnc(NCCN)nc1Nc1cccc(C(F)(F)F)c1
> 10 | – | CN(C)C(=O)c1cnc(NCCN)nc1Nc1cccc(C(F)(F)F)c1
– | Not Active | COc1ccc2c(c1)c(/C=C1\C(=O)Nc3ccc(S(=O)(=O)N(C)C)cc31)cn2C
> 10 | – | CN(C)CCN(C)c1ncc(C(N)=O)c(Nc2cccc(C(F)(F)F)c2)n1
